# Source: patent US10059742B2, “Peptides and methods and uses thereof for preventing retinal disorders” (priority 2012, dated 2018)
# Ends that are not written are not given here.
# Legend:
# [1] = test system: axotomized retinal ganglion cells (RGCs); test: Optic nerve transection (axotomy): RGC survival at 14 days; type: in vivo, rat; conditions: 14 days postaxotomy, TAT-conjugated peptide
# Protocol: Optic nerve transection was performed as previously described (Koeberle and Ball 1998; Koeberle and Bahr 2008; Koeberle, Wang et al. 2010; Magharious, D'Onofrio et al. 2011; Magharious, D'Onofrio et al. 2011; Monnier, D'Onofrio et al. 2011). Animals were placed in a stereotaxic frame and anesthetized with Isoflurane (2%; 0.8 L/min oxygen flow rate) delivered through a gas anesthesia mask. Lidocaine eye drops were used to anesthetize the cornea and ophthalmic eye ointment was applied to the cornea to prevent desiccation during surgery. […] In order to allow access to the optic nerve and surrounding dura mater sheath, the eye was rotated laterally by applying traction to the extraocular muscles. The dural sheath surrounding the optic nerve was cut longitudinally, to avoid damaging blood vessels supplying the retina. The optic nerve was gently lifted from the meningeal sheath and transected within 2 mm of the back of the eye. In order to retrogradely label RGCs, gelfoam soaked in 2% Fluorogold (Sigma) was placed over the transected optic nerve stump. The orbital contents were returned to their original location and the initial incision was closed. The optic nerve crush procedure was performed using a similar approach; however, the optic nerve was crushed using fine self-closing forceps for 6 seconds as previously described (Magharious, D'Onofrio et al. 2011; Monnier, D'Onofrio et al. 2011). The orbital contents were then similarly returned to their original location and the initial incision was closed. Following surgery, rats were placed in a recovery cage under a heat lamp and given Ketoprofen to ease post-surgical recovery.
# The procedures for intraocular and optic nerve injections have been previously described (Koeberle and Ball 1998; Koeberle and Bahr 2008; Koeberle, Wang et al. 2010; Magharious, D'Onofrio et al. 2011; Magharious, D'Onofrio et al. 2011; Monnier, D'Onofrio et al. 2011). Animals received intraocular injections of each peptide at 3 and 8 days postaxotomy, prior to the onset of RGC apoptosis which occurs at 4-5 days after axotomy. Animals were placed in a stereotaxic frame and anesthetized with isoflurane, delivered through a gas anesthetic mask. The cornea was anesthetized using Alcaine eye drops (Alcon) prior to intraocular injections. A pulled glass micropipette attached to a 10 μl Hamilton syringe via a hydraulic coupling through PEEK tubing was used to deliver 4 μl of a peptide solution (10 mg/ml) into the vitreous chamber of the eye, posterior to the limbus. Care was taken to prevent damage to the lens or anterior structures of the eye. The pipette was held in place for 5 seconds after injection and slowly withdrawn from the eye to prevent reflux. Injections were performed using a surgical microscope in order to visualize pipette entry into the vitreous chamber and confirm delivery of the injected solution.
# To directly target RGCs, peptide solutions were injected into the transected optic nerve stump using a 10 microliter Hamilton syringe. A total of 5 microliters of peptide suspension (10 mg/ml) were injected. The majority of the injected fluid will reflux out of the optic nerve during this procedure, so the remaining pool of peptide suspension is left in place when returning the orbital contents to their original positions.
# For intraperitoneal injections, 1 ml of saline containing 0.5 mg of dissolved peptide was delivered via a 25 gauge needle attached to a 5 ml syringe, following rapid anesthesia with isoflurane to incapacitate the animal.
# For eye drop application of C-terminal peptides, animals were sedated with isoflurane and placed in a stereotaxic frame, in order to reduce the blink reflex. Twenty-five microliters of a peptide suspension (1 mg/ml) was delivered to the surface of the cornea using a micropipetter with a sterile micropipette tip. Eye drops were delivered once per day, on day 1, 2, 3, 4, 5, 6, and day 7 after axotomy. […]
# [2] = test system: retinal ganglion cells (RGCs); test: Retinal ischemia (ophthalmic artery ligation): RGC survival at 14 days; type: in vivo, rat; conditions: ophthalmic vessels ligated 45 minutes; intravenous 500 μg at 1 day and 8 days after injury; 14 days after stroke
# Protocol: The approach for temporary retinal ischemia (ophthalmic artery ligation) was similar with a few exceptions. this procedure has been previously described (Tatton, Chalmers-Redman et al. 2001). Since the optic nerve was not damaged in this procedure, RGCs had to be retrogradely labeled prior to ischemia. […] Injections were performed under gas anesthetic in a stereotaxic apparatus. […] Injections were carried out using a 10 μl Hamilton syringe actuated by a computer controlled Picopump (World Precision Instruments). […] The needle was left in place for 10 min after each injection and slowly withdrawn to prevent reflux of the injected solutions up the needle tract. The surgical approach to the optic nerve was identical to that described for optic nerve transection. After a longitudinal cut was made in the meningeal sheath surrounding the optic nerve, the nerve was gently lifted out of the sheath. The meningeal sheath including the ophthalmic artery was then clamped using a calibrated micro-vessel clamp for 45 minutes, after which the clamp was removed to permit vascular reperfusion. […]
# Eyes were enucleated, the cornea and lens were removed and the remaining eye cups containing the retinas were fixed in 4% paraformaldehyde at 14 days postaxotomy. […] RGC densities were grouped by retinal eccentricity (inner, middle, outer), and expressed as mean±SEM. […]
# [3] = test system: cultured post-natal cortical neurons; test: Cortical neuron survival after glutamate (crystal violet assay); type: cell-based, rat; conditions: 5 mM glutamate, 24 hours; increasing volumes of 10 mg/ml peptide stock; relative to control
# Protocol: Cortical neuron cultures were made from newborn (P5) rat pups. Cortical samples were triturated 30× using a P1000 pipettor in cold Dubelcco's PBS+glucose. Neurons were plated in 24 well plates coated with poly-d-lysine. 100,000 cells/well were plated in cold Neurobasal A medium+glutamax+penicillin/streptomycin. Cultures were placed in an incubator (37 Celsius, 5% CO2) for 7 days, with half the media changed after 3 days.
# After 7 days in culture, the media was replaced with fresh media containing 5 mM glutamate. Experimental samples received various amounts of each peptide, whereas controls received an equivalent volume of PBS (vehicle). After 24 hours, cell survival was quantified using the crystal violet assay: Media was removed from the cells and 200 microliters of 0.2% crystal violet (dissolved in 20% methanol:80% H2O) was added to each well. After 5 minutes, wells were rinsed with distilled water and the plates were dried. Crystal violet was eluted from the cells using 0.1 M sodium citrate in 50% ethanol. 100 microliter samples from each well were then transferred to 96 well plates and absorbance was read at 540 nm. Results were expressed as the relative fold-change in comparison to the control samples that received buffer.
substance,measurement,setting,value
"TAT-Kv2.1: TAT domain conjugated to Kv2.1 voltage-gated potassium channel C-terminal peptide HGSTRDQSI (SEQ ID NO:2) (also: TAT conjugated, site not given here; listed as Homo sapiens)",increase in RGC survival compared to controls,[1]; intraocular injection 10 mg/ml at 3 and 8 days,3 fold
same,RGC density as share of the normal density of 2500 cells/mm^2,[1]; nerve injection 10 mg/ml,~80%
same,increase in RGC survival compared to controls,[1]; single nerve injection 10 mg/ml at time of axotomy,5 fold
same,RGC survival after ischemic (stroke) injury,[2],significantly enhanced RGC survival
same,cortical neuron survival,[3],dose-dependent survival-promoting effect
